In publication PMC11475408, “All‐Inorganic Polyoxometalates Act as Superchaotropic Membrane Carriers” (Advanced Materials (Deerfield Beach, Fla.), 2023):
“And” between values parts separate entries of the source, which are not always exact repeats. Equal values may be shown once.

What was measured:
[1] = Stability of POMs in nutrient mixture F-12 Ham by NMR; type: physicochemical
Protocol: To better mimic biological membranes, which contain negatively charged components and cholesterol, equivalent transport experiments were performed in anionic liposomes^[ [19], [20] ^] with the prototypal POM carriers, [PVW11]^4‒ and [SiMoW11]^4‒ . […] This encouraged us to transfer the experiments to CHO‐K1 (Chinese hamster ovary) cells, after we had confirmed sufficient stability of the most promising POM carriers, [PVW11]^4‒ and [SiMoW11]^4‒ , in the cellular nutrient mixture (F‐12 Ham's medium, Figures S26–S28C, Supporting Information).
Table S9. Results of stability investigation by NMR spectroscopy.
11 product, presumably [SiIVWVI12O40]4–) […]
product, presumably [SiIVWVI12O40]4–)
[AlW ]5‒ freshly prepared
[GeAlW ]5‒ freshly prepared […]
prepared ‒13.7; ‒14.7 intermediate anions
Stability of [PVW11]4‒ in 10 mM Mes buffer pH 5.5: 31P NMR studies were firstly performed on 3 mM solutions of [α-PVVVWVI11O40]4‒ in 10 mM Mes buffer pH 5.5 (Figure S25). The 31P NMR recorded immediately ([…]), one day (Figure S25B), and five days (Figure S25C) after solution preparation display the same signals that can be attributed to the intact [α-PVVVWVI11O40]4‒ (‒14.9 ppm) and the monolacunary [α-PVWVI11O40]7‒ (‒10.8 ppm) species formed upon partial hydrolysis. […]
Figure S24. 31P (A) and 51V (B) NMR spectra of 3 mM solutions of [PVW11]4‒ recorded in D2O. […]

heptaarginine = assay: ITC, POM into heptaarginine; type: binding; settings: 10 mM Tris; for Ka/ 107, heptaarginine: pH 7.4, 298.15 K, value is Ka divided by 10^7, duplicates; for Ka, heptaarginine (Figure 2c,d): pH 7.4, POM/oligoarginine 100/8 and 200/10 µM
Protocol: All experiments were performed with a VP‐ITC MicroCalorimeter from MicroCal, Int,. at atmospheric pressure and 298.15 K. Solutions were degassed and thermostatic prior to the titration experiments in a ThermoVac accessory. A constant volume of POM ([PVW11]^4‒ or [SiMoW11]^4‒) (10 µL per injection) was injected into the oligopeptide solution (heptaArg, protamine, polyArg or heptaLys) in 10 mM Tris, pH 7.4 to determine the apparent binding affinity of [PVW11]^4‒ and [SiMoW11]^4‒ with the oligopeptides. Dilution heats were determined by titration of the POM into buffer and subtracted from the reaction heat. The neat reaction heat was fitted with Origin 7.0 software by using the “one‐set‐of‐sites” model to obtain the complex stability constant (K a) and molar reaction enthalpy (∆H°). The free energy (∆G°) and entropy changes (∆S°) were obtained according to the relation: ∆G° = −RTlnK a = ∆H°−T∆S°.
4. Supramolecular interactions
Figure S10. Microcalorimetric titrations in 10 mM Tris, pH 7.4: Raw ITC data (top) for the sequential injections of POM solution into an oligoarginine solution, and apparent reaction heats (bottom) obtained from the integration of the calorimetric traces. […]
values and ± 0.5 kcal mol‒1 for ΔH and TΔS (duplicate measurements). Note that none of these interactions lead to any precipitation or aggregates, confirmed by the absence of any detectable signal by DLS. […]
Figure S11. Microcalorimetric titrations in 10 mM Tris, pH 7.4: Raw ITC data (top) for the sequential injections of POM solution into a heptalysine solution, and apparent reaction heats (bottom) obtained from the integration of the calorimetric traces. POM/heptalysine concentrations in µM: a, 200/8 and b, 150/10. Error data is 5% for the n values and ± 0.5 kcal mol‒1 for ΔH and TΔS (duplicate […]
Table S6. Binding constants (Ka in M‒1) and thermodinamic data (in kcal mol‒1) measured for the complex formation between the stable and active POMs and oligoarginines in 10 mM Tris, pH 7.4. a) […]
a) Error data is 5% for the n values and ± 0.5 kcal mol‒1 for ΔH and TΔS (duplicate measurements).

Substance	% parent anion, F-12 Ham after 1 h at 37 °C (183W NMR) ([1]; 10 mM POM, F-12 Ham (final pH 5.7), 183W NMR signal intensities)	Ka/ 107, heptaarginine (heptaarginine)	Ka, heptaarginine (Figure 2c,d) (heptaarginine)	% parent anion, nutrient mixture F-12 Ham freshly prepared ([1]; 3 mM POM, F-12 Ham pH 7.4, 31P NMR integration)
K4[α‐Si^IVMo^VIW^VI 11O40]·24H2O [[SiMoW11]^4‒]	50% and ~ 50%	0.6 M‒1	6.3e+06 M⁻¹	
K4[α‐P^VV^VW^VI 11O40]·4H2O [[PVW11]^4‒]		5.7 M‒1	5.7e+07 M⁻¹	43%
